Data on one compound can be found in patent US11235020B2, “Methods and compositions for inhibiting glyoxalase 1 (GLO1)” (priority 2013, dated 2022).

Data set [1] relates to anxiety-like behavior in B6 mice. Nature of the data set: Light-dark (LD) box test. Type of data set: in vivo, mouse. The conditions noted are these: MG 50 mg/kg i.p. The procedure:
LD box test: Mice were placed in the light compartment, and activity was monitored for 4 minutes. The light compartment was illuminated to approximately 1,000 lux, and the dark compartment was illuminated to approximately 5 lux. Behavior was recorded and automatically scored by the Noldus Ethovision System.
LD box test: Ten minutes post-injection, mice were placed in the light compartment, and activity was monitored for three minutes. The light compartment was illuminated to approximately 1,000 lux, and the dark compartment was illuminated to approximately 5 lux. Behavior was recorded and automatically scored by the Noldus Ethovision System.

Data set [2] concerns GABAA receptors in macropatches excised from CGN. In words: Macropatch recording from CGN. Type of data set: cell-based, rat. The procedure: Macropatch recording: Macropatch recording was performed with 1.5-2 MΩ electrodes filled with bath solution. The inside of excised patches was perfused with electrode solution containing the indicated reagents. SR was added to the electrode where indicated.

The test system of the next data set is neuronal cell death. To be noted: literature (Di Loreto 2008; Di Loreto 2004; Li 2010); cited from earlier work.
Data set [3] concerns depression-like behavior in mice. Nature of the data set: Tail suspension test (TST). Type of data set: in vivo, mouse. To be noted: MG 50 mg/kg i.p., acute, 10 min before test, B6 mice. As for the experimental part: Mice were suspended by their tails using adhesive tape attached to a bar elevated approximately 46 cm above a table. The apparatus was illuminated to approximately 1,000 lux. Mice were tested individually, and time spent immobile was scored manually for six minutes. For MG studies, mice were treated with vehicle (0.9% saline) or crude MG (Sigma-Aldrich, 50 mg/kg) by i.p. injection ten minutes before the test. Behavior was scored for five minutes.

In the next data set the target is T1, GABAB receptors (Rattus norvegicus, UniProt Q9Z0U4).
T1 construct: endogenous in cells; host or cells: primary rat cerebellar granule neurons
Nature of the data set: GABAB receptor activation (IKIR) in CGN. Type of data set: cell-based. To be noted: 10 μM MG in the presence of SR. An excerpt:
Potassium currents: Voltage-gated potassium channel currents were evoked using a previously reported protocol with modifications (Plant 2006). The whole voltage-gated potassium current, IK+, and the delayed rectifier current, IDR were isolated with two voltage protocols. First, IK+ was evoked by 250 ms test pulses to between −80 and 90 mV from −80 mV following a 250 ms pre-pulse to −140 mV. Then, the protocol was repeated using a −50 mV pre-pulse to inactivate IK+ and isolate IDR. The inactivating component of the current, IKA, was isolated by subtracting IDR from IK+ recorded in the same cells. The standing outward potassium leak current, IKso, and the inwardly rectifying potassium current, IKIR, were studied as previously reported with modifications (Plant 2002). Cells were held at −20 mV, and the membrane potential was ramped to −120 mV over a period of 100 ms before returning to −20 mV. Ramp hyperpolarizations were repeated every 20 seconds.

T1 sequence (Q9Z0U4 17-960 limits assumed): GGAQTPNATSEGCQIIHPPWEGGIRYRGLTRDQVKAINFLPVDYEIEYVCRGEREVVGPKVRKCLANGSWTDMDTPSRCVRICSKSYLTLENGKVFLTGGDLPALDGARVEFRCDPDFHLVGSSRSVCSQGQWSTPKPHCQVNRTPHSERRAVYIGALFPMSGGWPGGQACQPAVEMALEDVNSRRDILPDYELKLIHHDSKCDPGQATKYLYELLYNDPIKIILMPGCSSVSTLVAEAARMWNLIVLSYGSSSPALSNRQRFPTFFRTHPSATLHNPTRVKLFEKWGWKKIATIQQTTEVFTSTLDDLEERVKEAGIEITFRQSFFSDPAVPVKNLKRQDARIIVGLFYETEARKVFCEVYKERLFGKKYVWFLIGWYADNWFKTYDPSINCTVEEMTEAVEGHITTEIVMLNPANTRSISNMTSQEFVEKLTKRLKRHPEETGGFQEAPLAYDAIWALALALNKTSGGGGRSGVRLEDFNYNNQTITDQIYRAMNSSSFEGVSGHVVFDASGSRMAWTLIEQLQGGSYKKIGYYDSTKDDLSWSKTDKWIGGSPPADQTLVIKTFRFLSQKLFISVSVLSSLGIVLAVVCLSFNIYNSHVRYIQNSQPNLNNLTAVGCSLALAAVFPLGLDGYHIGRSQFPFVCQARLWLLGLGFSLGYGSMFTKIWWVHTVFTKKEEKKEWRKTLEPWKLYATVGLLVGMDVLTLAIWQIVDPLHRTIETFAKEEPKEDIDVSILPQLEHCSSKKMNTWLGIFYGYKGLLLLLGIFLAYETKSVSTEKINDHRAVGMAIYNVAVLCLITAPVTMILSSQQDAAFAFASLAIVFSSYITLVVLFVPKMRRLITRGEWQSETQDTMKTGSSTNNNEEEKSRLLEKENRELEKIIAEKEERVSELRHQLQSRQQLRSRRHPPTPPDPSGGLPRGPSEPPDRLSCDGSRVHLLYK
T1 sequence (O88871 41-940 partner): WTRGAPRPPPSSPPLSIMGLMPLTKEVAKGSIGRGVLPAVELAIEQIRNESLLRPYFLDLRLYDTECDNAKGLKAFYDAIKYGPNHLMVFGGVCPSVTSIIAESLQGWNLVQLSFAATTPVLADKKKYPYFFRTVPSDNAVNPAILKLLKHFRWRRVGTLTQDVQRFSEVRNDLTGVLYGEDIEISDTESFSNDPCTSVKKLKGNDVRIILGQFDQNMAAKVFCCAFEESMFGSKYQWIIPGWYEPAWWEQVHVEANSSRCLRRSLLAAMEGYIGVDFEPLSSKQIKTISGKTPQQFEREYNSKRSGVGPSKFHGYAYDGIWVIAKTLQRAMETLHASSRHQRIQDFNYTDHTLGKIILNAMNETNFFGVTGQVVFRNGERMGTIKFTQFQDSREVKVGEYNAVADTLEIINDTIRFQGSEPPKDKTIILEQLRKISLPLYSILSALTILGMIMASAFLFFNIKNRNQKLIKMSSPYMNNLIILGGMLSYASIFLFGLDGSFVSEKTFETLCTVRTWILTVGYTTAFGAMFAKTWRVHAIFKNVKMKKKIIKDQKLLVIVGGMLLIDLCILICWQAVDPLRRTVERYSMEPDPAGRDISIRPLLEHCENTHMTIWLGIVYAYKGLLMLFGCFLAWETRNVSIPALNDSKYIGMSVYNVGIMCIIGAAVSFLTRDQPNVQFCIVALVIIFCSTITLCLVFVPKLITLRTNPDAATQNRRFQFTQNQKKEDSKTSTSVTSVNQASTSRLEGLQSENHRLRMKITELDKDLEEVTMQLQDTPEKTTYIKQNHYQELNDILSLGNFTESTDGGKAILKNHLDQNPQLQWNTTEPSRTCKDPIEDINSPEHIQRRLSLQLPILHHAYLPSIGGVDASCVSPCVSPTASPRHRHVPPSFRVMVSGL

`CC(=O)C=O` [MG, methylglyoxal]: in data set [1], the “number of transitions between compartments” value is “without affecting the number of transitions”. Moreover, in data set [1] (10 min post-injection), the “time spent in the light compartment” value was “increased time spent in the light compartment”. Also, the “latency of inward current after application to the intracellular face” value in data set [2] (10 μM MG) is “approximately 40 seconds”. Besides, the “current on application to the intracellular face of macropatches” value in data set [2] (10 μM, SR 10 μM at the extracellular face (pipette)) was “elicited an inward current”. Also, in the data set with neuronal cell death, the “MG concentrations that induce neuronal cell death in vitro” value was 100-1,000 μM. Besides, the “duration of immobility in the TST” value in data set [3] was “did not affect the duration of immobility”. Moreover, at GABAB receptors, the “activation of GABAB receptors” value is listed as “did not activate GABAB receptors”.
